Source: paper PMC10826971, “Evaluating protein cross-linking as a therapeutic strategy to stabilize SOD1 variants in a mouse model of familial ALS” (PLOS Biology, 2024)

Tests used:
SOD1^A4V = molecular target: T1, SOD1^A4V (Homo sapiens, UniProt P00441, A5V); test: Differential scanning fluorimetry (DSF), thermal stability; assay type: binding
T1 construct: made in house; host or cells: EGy118ΔSOD1 yeast, YEp351 expression vector
Description: (§1) To understand how cross-linking effects SOD1 stability, we quantified changes in unfolding temperature (ΔTu, hereafter thermal stability).
(§2) The effect of cross-link formation on the thermal stability of SOD1 was determined by differential scanning fluorimetry as previously described. […] After incubation, SYPRO Orange (Invitrogen Corporation, Carlsbad, California, USA), an environmentally sensitive fluorescent dye which is quenched in an aqueous environment but becomes unquenched once it binds hydrophobic residues, was added to the reaction mixture to a final concentration of 200×. The samples were then transferred to a fast optical 96-well reaction plate (Applied Biosystem, Life Technologies Corporation, Carlsbad, California, USA) and loaded on to the real-time PCR machine (Applied Biosystem, Life Technologies Corporation, Carlsbad, California, USA) after plate was spun down to eliminate bubbles. The Melt curve template in StepOne Plus software was used to set up a method. […] The final concentration of DMSO in the reaction mixture was checked as it contributes to the denaturation of proteins. Dilutions were performed accordingly to maintain the final concentration of DMSO less than 1% (vol/vol). All samples were run in technical triplicates. The background data was subtracted from the average relative fluorescence and average derivate for each temperature point, and the data were normalized before Tus were quantified by averaging the negative first derivative of relative fluorescence of all 3 runs and identifying the local minima.

SOD1^G85R = molecular target: T2, SOD1^G85R (Homo sapiens, UniProt P00441, G86R); test: as above; assay type: binding
T2 construct: made in house; host or cells: EGy118ΔSOD1 yeast, YEp351 expression vector
T2 sequence (P00441 2-154 G86R limits assumed): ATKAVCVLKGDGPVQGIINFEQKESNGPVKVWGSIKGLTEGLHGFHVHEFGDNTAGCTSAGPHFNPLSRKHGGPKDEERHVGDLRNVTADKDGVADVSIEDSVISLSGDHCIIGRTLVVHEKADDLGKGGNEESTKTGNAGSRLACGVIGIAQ
Description: as §1, §2

T1 sequence (P00441 2-154 A5V limits assumed): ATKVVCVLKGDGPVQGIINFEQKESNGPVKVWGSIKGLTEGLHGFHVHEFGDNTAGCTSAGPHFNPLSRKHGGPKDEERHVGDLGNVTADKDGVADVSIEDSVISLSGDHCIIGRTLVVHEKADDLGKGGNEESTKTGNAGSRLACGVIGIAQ

Question: [O-][S+]1CCCCS1 (stereo not drawn) [S-XL6, 1,2-dithiane-1-oxide] was tested. Which “unfolding temperature (Tu) of S-XL6 cross-linked protein” value (SOD1^A4V; 10-fold molar excess S-XL6, 4 h 37°C, untreated 62.9°C) did it give?
Answer: Its value is 79.3 °C.

Question: And the “Normalized ROX” value (SOD1^A4V; SOD1 (A4V) + S-XL6, Avg. Temp 88.559)?
Answer: Its value is 0.8246.

Question: What about the “Normalized ROX” value (SOD1^A4V; SOD1 (A4V) + S-XL6, Avg. Temp 88.8631) of the same molecule?
Answer: Its value is 0.8068.

Question: And the “Normalized ROX” value (SOD1^A4V; SOD1 (A4V) + S-XL6, Avg. Temp 89.1556)?
Answer: The value was 0.7806.

Question: And the “Normalized ROX” value (SOD1^A4V; SOD1 (A4V) + S-XL6, Avg. Temp 89.4509)?
Answer: Its value is 0.7704.

Question: And the “Normalized ROX” value (SOD1^A4V; SOD1 (A4V) + S-XL6, Avg. Temp 89.7543)?
Answer: The value was 0.7528.

Question: What about the “Normalized ROX” value (SOD1^A4V; SOD1 (A4V) + S-XL6, Avg. Temp 90.0524) of the same molecule?
Answer: Its value is 0.7438.

Question: What about the “Normalized ROX” value (SOD1^A4V; SOD1 (A4V) + S-XL6, Avg. Temp 90.3511) of the same molecule?
Answer: Its value is 0.7281.

Question: And the “Normalized ROX” value (SOD1^A4V; SOD1 (A4V) + S-XL6, Avg. Temp 90.6551)?
Answer: The value was 0.7134.

Question: And the “Normalized ROX” value (SOD1^A4V; SOD1 (A4V) + S-XL6, Avg. Temp 90.9595)?
Answer: Its value is 0.6972.

Question: What about the “Normalized ROX” value (SOD1^A4V; SOD1 (A4V) + S-XL6, Avg. Temp 91.2522) of the same molecule?
Answer: Its value is 0.6869.

Question: What about the “Normalized ROX” value (SOD1^A4V; SOD1 (A4V) + S-XL6, Avg. Temp 91.5534) of the same molecule?
Answer: The value was 0.6765.

Question: And the “Normalized ROX” value (SOD1^A4V; SOD1 (A4V) + S-XL6, Avg. Temp 91.844)?
Answer: Its value is 0.6607.

Question: And the “Normalized ROX” value (SOD1^A4V; SOD1 (A4V) + S-XL6, Avg. Temp 92.1549)?
Answer: Its value is 0.6557.

Question: And the “Normalized ROX” value (SOD1^A4V; SOD1 (A4V) + S-XL6, Avg. Temp 92.4505)?
Answer: Its value is 0.6388.

Question: And the “Normalized ROX” value (SOD1^A4V; SOD1 (A4V) + S-XL6, Avg. Temp 92.7501)?
Answer: The value was 0.6357.

Question: What about the “Normalized ROX” value (SOD1^A4V; SOD1 (A4V) + S-XL6, Avg. Temp 93.0577) of the same molecule?
Answer: The value was 0.6246.

Question: What about the “Normalized ROX” value (SOD1^A4V; SOD1 (A4V) + S-XL6, Avg. Temp 93.3585) of the same molecule?
Answer: Its value is 0.6123.

Question: What about the “Normalized ROX” value (SOD1^A4V; SOD1 (A4V) + S-XL6, Avg. Temp 93.6532) of the same molecule?
Answer: Its value is 0.6065.

Question: What about the “Normalized ROX” value (SOD1^A4V; SOD1 (A4V) + S-XL6, Avg. Temp 93.9591) of the same molecule?
Answer: Its value is 0.6047.

Question: What about the “Normalized ROX” value (SOD1^A4V; SOD1 (A4V) + S-XL6, Avg. Temp 94.2561) of the same molecule?
Answer: The value was 0.5946.

Question: And the “Normalized ROX” value (SOD1^A4V; SOD1 (A4V) + S-XL6, Avg. Temp 94.5503)?
Answer: Its value is 0.5850.

Question: What about the “Normalized ROX” value (SOD1^A4V; SOD1 (A4V) + S-XL6, Avg. Temp 94.8582) of the same molecule?
Answer: The value was 0.5820.

Question: What about the “unfolding temperature (Tu) of S-XL6 cross-linked protein” value (SOD1^G85R; 10-fold molar excess S-XL6, 4 h 37°C, untreated 40.8°C) of the same molecule?
Answer: Its value is 65.1 °C.

Question: And the “Normalized ROX” value (SOD1^G85R; SOD1 G85R Protein+S-XL6, Avg. Temp 88.557)?
Answer: Its value is 0.19.

Question: And the “Normalized ROX” value (SOD1^G85R; SOD1 G85R Protein+S-XL6, Avg. Temp 88.853)?
Answer: The value was 0.18.

Question: What about the “Normalized ROX” value (SOD1^G85R; SOD1 G85R Protein+S-XL6, Avg. Temp 89.160) of the same molecule?
Answer: The value was 0.17.

Question: And the “Normalized ROX” value (SOD1^G85R; SOD1 G85R Protein+S-XL6, Avg. Temp 89.454)?
Answer: The value was 0.17.

Question: What about the “Normalized ROX” value (SOD1^G85R; SOD1 G85R Protein+S-XL6, Avg. Temp 89.762) of the same molecule?
Answer: The value was 0.16.

Question: And the “Normalized ROX” value (SOD1^G85R; SOD1 G85R Protein+S-XL6, Avg. Temp 90.051)?
Answer: The value was 0.15.

Question: And the “Normalized ROX” value (SOD1^G85R; SOD1 G85R Protein+S-XL6, Avg. Temp 90.354)?
Answer: Its value is 0.15.

Question: And the “Normalized ROX” value (SOD1^G85R; SOD1 G85R Protein+S-XL6, Avg. Temp 90.655)?
Answer: The value was 0.14.

Question: What about the “Normalized ROX” value (SOD1^G85R; SOD1 G85R Protein+S-XL6, Avg. Temp 90.952) of the same molecule?
Answer: Its value is 0.13.

Question: What about the “Normalized ROX” value (SOD1^G85R; SOD1 G85R Protein+S-XL6, Avg. Temp 91.251) of the same molecule?
Answer: Its value is 0.13.

Question: And the “Normalized ROX” value (SOD1^G85R; SOD1 G85R Protein+S-XL6, Avg. Temp 91.555)?
Answer: Its value is 0.12.

Question: What about the “Normalized ROX” value (SOD1^G85R; SOD1 G85R Protein+S-XL6, Avg. Temp 91.855) of the same molecule?
Answer: The value was 0.11.

Question: What about the “Normalized ROX” value (SOD1^G85R; SOD1 G85R Protein+S-XL6, Avg. Temp 92.157) of the same molecule?
Answer: The value was 0.11.

Question: What about the “Normalized ROX” value (SOD1^G85R; SOD1 G85R Protein+S-XL6, Avg. Temp 92.449) of the same molecule?
Answer: The value was 0.10.

Question: And the “Normalized ROX” value (SOD1^G85R; SOD1 G85R Protein+S-XL6, Avg. Temp 92.753)?
Answer: The value was 0.10.

Question: What about the “Normalized ROX” value (SOD1^G85R; SOD1 G85R Protein+S-XL6, Avg. Temp 93.058) of the same molecule?
Answer: The value was 0.09.

Question: What about the “Normalized ROX” value (SOD1^G85R; SOD1 G85R Protein+S-XL6, Avg. Temp 93.353) of the same molecule?
Answer: The value was 0.09.

Question: What about the “Normalized ROX” value (SOD1^G85R; SOD1 G85R Protein+S-XL6, Avg. Temp 93.651) of the same molecule?
Answer: The value was 0.08.

Question: What about the “Normalized ROX” value (SOD1^G85R; SOD1 G85R Protein+S-XL6, Avg. Temp 93.955) of the same molecule?
Answer: The value was 0.0744.

Question: What about the “Normalized ROX” value (SOD1^G85R; SOD1 G85R Protein+S-XL6, Avg. Temp 94.247) of the same molecule?
Answer: The value was 0.07.

Question: What about the “Normalized ROX” value (SOD1^G85R; SOD1 G85R Protein+S-XL6, Avg. Temp 94.552) of the same molecule?
Answer: The value was 0.07.

Question: What about the “Normalized ROX” value (SOD1^G85R; SOD1 G85R Protein+S-XL6, Avg. Temp 94.853) of the same molecule?
Answer: Its value is 0.06.

Question: And the “Normalized ROX” value (SOD1^G85R; SOD1 G85R Protein+S-XL6, Avg. Temp 95.157)?
Answer: Its value is 0.06.

Question: What about the “Normalized ROX” value (SOD1^G85R; SOD1 G85R Protein+S-XL6, Avg. Temp 95.458) of the same molecule?
Answer: Its value is 0.05.

Question: What about the “Normalized ROX” value (SOD1^G85R; SOD1 G85R Protein+S-XL6, Avg. Temp 95.752) of the same molecule?
Answer: Its value is 0.05.

Question: What about the “Normalized ROX” value (SOD1^G85R; SOD1 G85R Protein+S-XL6, Avg. Temp 96.054) of the same molecule?
Answer: Its value is 0.044.

Question: What about the “Normalized ROX” value (SOD1^G85R; SOD1 G85R Protein+S-XL6, Avg. Temp 96.360) of the same molecule?
Answer: The value was 0.04.

Question: What about the “Normalized ROX” value (SOD1^G85R; SOD1 G85R Protein+S-XL6, Avg. Temp 96.652) of the same molecule?
Answer: Its value is 0.0332.

Question: And the “Normalized ROX” value (SOD1^G85R; SOD1 G85R Protein+S-XL6, Avg. Temp 96.955)?
Answer: The value was 0.0323.

Question: What about the “Normalized ROX” value (SOD1^G85R; SOD1 G85R Protein+S-XL6, Avg. Temp 97.253) of the same molecule?
Answer: Its value is 0.0276.

Question: And the “Normalized ROX” value (SOD1^G85R; SOD1 G85R Protein+S-XL6, Avg. Temp 97.554)?
Answer: The value was 0.0216.

Question: What about the “Normalized ROX” value (SOD1^G85R; SOD1 G85R Protein+S-XL6, Avg. Temp 97.851) of the same molecule?
Answer: Its value is 0.02.

Question: And the “Normalized ROX” value (SOD1^G85R; SOD1 G85R Protein+S-XL6, Avg. Temp 98.161)?
Answer: Its value is 0.0177.

Question: And the “Normalized ROX” value (SOD1^G85R; SOD1 G85R Protein+S-XL6, Avg. Temp 98.455)?
Answer: Its value is 0.0121.

Question: And the “Normalized ROX” value (SOD1^G85R; SOD1 G85R Protein+S-XL6, Avg. Temp 98.751)?
Answer: Its value is 0.0106.

Question: What about the “Normalized ROX” value (SOD1^G85R; SOD1 G85R Protein+S-XL6, Avg. Temp 99.056) of the same molecule?
Answer: The value was 0.00748.

Question: What about the “Normalized ROX” value (SOD1^G85R; SOD1 G85R Protein+S-XL6, Avg. Temp 99.359) of the same molecule?
Answer: Its value is 0.00339.

Question: And the “Normalized ROX” value (SOD1^G85R; SOD1 G85R Protein+S-XL6, Avg. Temp 99.657)?
Answer: The value was 0.00106.

Question: And the “Normalized ROX” value (SOD1^G85R; SOD1 G85R Protein+S-XL6, Avg. Temp 99.866)?
Answer: Its value is 0.00.
